Tests used:
[1] = target: T1, F508delCFTR (Homo sapiens, UniProt P13569, DEL508-508); assay: Cell Surface Expression-Horse Radish Peroxidase (CSE-HRP) assay, test compound without co-corrector; type: cell-based; conditions: for Emax: maximum at any tested concentration, normalized to positive control, without co-corrector; for EC50: test compound without co-corrector;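 on Emax: percent of on-plate 2 µM positive control corrector response over DMSO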
T1 construct: expressed in transfected cells; host or cells: CFBE41o- human lung-derived epithelial cells (CFBE41o-F508delCFTR-HRP), doxycycline-inducible
T1 sequence (P13569 with tags, fused parts or gaps DEL508-508): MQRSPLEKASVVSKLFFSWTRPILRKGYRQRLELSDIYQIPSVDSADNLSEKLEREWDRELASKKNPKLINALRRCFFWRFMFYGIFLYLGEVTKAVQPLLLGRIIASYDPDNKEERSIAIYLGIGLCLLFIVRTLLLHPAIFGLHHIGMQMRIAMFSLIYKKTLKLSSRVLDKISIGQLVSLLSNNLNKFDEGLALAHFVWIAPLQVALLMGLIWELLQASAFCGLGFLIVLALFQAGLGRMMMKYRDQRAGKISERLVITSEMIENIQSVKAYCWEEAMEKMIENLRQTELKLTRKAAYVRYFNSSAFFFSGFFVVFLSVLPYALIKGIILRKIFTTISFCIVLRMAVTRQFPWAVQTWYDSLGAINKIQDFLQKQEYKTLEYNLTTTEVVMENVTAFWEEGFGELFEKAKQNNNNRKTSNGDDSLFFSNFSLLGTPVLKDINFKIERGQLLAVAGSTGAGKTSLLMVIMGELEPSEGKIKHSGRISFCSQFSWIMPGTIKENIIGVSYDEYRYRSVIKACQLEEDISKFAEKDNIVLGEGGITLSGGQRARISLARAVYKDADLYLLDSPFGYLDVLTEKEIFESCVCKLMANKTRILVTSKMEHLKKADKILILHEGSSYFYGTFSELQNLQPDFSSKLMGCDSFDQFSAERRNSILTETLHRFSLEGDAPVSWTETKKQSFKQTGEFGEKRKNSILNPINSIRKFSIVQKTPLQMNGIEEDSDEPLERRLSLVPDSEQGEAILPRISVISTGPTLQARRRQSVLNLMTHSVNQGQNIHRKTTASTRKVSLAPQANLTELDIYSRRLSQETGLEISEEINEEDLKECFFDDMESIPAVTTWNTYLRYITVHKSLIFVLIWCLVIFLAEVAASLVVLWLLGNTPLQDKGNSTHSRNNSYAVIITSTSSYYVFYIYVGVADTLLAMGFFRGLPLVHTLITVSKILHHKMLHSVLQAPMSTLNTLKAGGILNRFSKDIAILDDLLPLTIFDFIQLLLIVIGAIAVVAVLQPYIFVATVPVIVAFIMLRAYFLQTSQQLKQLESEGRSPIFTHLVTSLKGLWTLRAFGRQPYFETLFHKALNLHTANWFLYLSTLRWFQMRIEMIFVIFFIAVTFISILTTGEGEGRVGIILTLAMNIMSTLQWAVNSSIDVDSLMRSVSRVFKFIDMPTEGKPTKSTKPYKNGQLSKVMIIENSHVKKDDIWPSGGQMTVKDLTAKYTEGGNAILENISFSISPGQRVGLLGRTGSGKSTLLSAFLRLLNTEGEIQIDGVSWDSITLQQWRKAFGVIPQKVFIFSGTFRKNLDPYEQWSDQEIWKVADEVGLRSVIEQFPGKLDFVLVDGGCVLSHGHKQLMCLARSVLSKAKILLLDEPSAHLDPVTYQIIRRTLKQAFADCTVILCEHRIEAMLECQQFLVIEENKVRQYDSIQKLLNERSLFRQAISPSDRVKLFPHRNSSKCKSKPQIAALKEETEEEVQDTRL
Summary of the method: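 CFBE41o- cells expressing F508delCFTR with HRP in the fourth exofacial loop, induced with 0.5 μg/mL doxycycline for 72 h at 37° C, then exposed to compound alone for 18-24 h at 33° C, 8-point 3-fold series from 20 μM. Surface HRP read by luminol luminescence, normalized to positive corrector control versus DMSO; EC50 from variable-slope sigmoidal fit of three replicate plates.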

[2] = target: T1, F508delCFTR; assay: Cell Surface Expression-Horse Radish Peroxidase (CSE-HRP) assay, test compound with co-corrector; type: cell-based; conditions: with 2 μM co-corrector; for Maximum % activity (with co-corrector): maximum at any tested concentration, normalized to positive control;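 on Maximum % activity (with co-corrector): percent of 2 µM positive control corrector over DMSO; co-corrector is that same compound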
Summary of the method: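 CFBE41o- cells expressing F508delCFTR with HRP in the fourth exofacial loop, induced with 0.5 μg/mL doxycycline for 72 h, then treated 18-24 h at 33° C. with compound (8 points, top 20 μM, 3-fold) plus 2 μM co-corrector. Surface HRP read by luminol luminescence; activity normalised to positive control, EC50 from variable-slope sigmoidal fit.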

SMILES	Emax [1] [%]	EC50 [1] [µM]	Maximum % activity (with co-corrector) [2]	EC50 [2] [µM]
COc1ccc(OC)c2c1CC[C@H]2C(=O)NS(=O)(=O)c1cccc2ccccc12 [Example I-90, (1R)-4,7-dimethoxy-N-(naphthalene-1-sulfonyl)-2,3-dihydro-1H-indene-1-carboxamide]	≥ 150	3 to 10	+++ (≥350)	3 to 10
COc1ccc(OC)c2c1CC[C@@H]2C(=O)NS(=O)(=O)c1cccc2ncccc12 [Example I-91, (1S)-4,7-dimethoxy-N-(quinoline-5-sulfonyl)-2,3-dihydro-1H-indene-1-carboxamide]	50 to 150	3 to 10	+++ (≥350)	3 to 10
COc1ccc(OC)c2c1CC[C@H]2C(=O)NS(=O)(=O)c1cccc2ncccc12 [Example I-92, (1R)-4,7-dimethoxy-N-(quinoline-5-sulfonyl)-2,3-dihydro-1H-indene-1-carboxamide]	≥ 150	3 to 10	+++ (≥350)	< 3
COc1ccc(C(F)(F)F)c2c1[C@@H](C(=O)NS(=O)(=O)c1cccc3ccccc13)CC2 [Example I-93, (1S)-7-methoxy-N-(naphthalene-1-sulfonyl)-4-(trifluoromethyl)-2,3-dihydro-1H-indene-1-carboxamide]	≥ 150	3 to 10	+++ (≥350)	3 to 10
COc1ccc(C(F)(F)F)c2c1[C@@H](C(=O)NS(=O)(=O)c1cccc3ncccc13)CC2 [Example I-95, (1S)-7-methoxy-N-(quinoline-5-sulfonyl)-4-(trifluoromethyl)-2,3-dihydro-1H-indene-1-carboxamide]	≥ 150	3 to 10	+++ (≥350)	< 3
COc1ccc(C2CCC2)c2c1C(C(=O)NS(=O)(=O)c1cccc3cnn(C)c13)CC2 (centres unmarked) [Example I-99, 4-cyclobutyl-7-methoxy-N-(1-methyl-1H-indazole-7-sulfonyl)-2,3-dihydro-1H-indene-1-carboxamide]	≥ 150	3 to 10	+++ (≥350)	< 3
COc1ccc(C2CCC2)c2c1[C@H](C(=O)NS(=O)(=O)c1cccc3ncccc13)CC2 [Example I-103, (1R)-4-cyclobutyl-7-methoxy-N-(quinoline-5-sulfonyl)-2,3-dihydro-1H-indene-1-carboxamide]	≥ 150	3 to 10	+++ (≥350)	3 to 10
COc1ccc(C2CCC2)c2c1[C@@H](C(=O)NS(=O)(=O)c1cccc3ncccc13)CC2 [Example I-104, (1S)-4-cyclobutyl-7-methoxy-N-(quinoline-5-sulfonyl)-2,3-dihydro-1H-indene-1-carboxamide]	≥ 150	3 to 10	+++ (≥350)	< 3
COc1ccc(Br)c2c1C(C(=O)NS(=O)(=O)c1cccc3c(O)cccc13)CC2 (centres unmarked) [Example I-105, 4-bromo-N-(5-hydroxynaphthalene-1-sulfonyl)-7-methoxy-2,3-dihydro-1H-indene-1-carboxamide]	≥ 150	3 to 10	+++ (≥350)	< 3
COc1ccc(C)c2c1CC[C@H]2C(=O)NS(=O)(=O)c1cccc2ccccc12 [Example I-108, (1R)-4-methoxy-7-methyl-N-(naphthalene-1-sulfonyl)-2,3-dihydro-1H-indene-1-carboxamide]	≥ 150	3 to 10	+++ (≥350)	3 to 10
COc1ccc(C)c2c1CC[C@@H]2C(=O)NS(=O)(=O)c1cccc2ccccc12 [Example I-109, (1S)-4-methoxy-7-methyl-N-(naphthalene-1-sulfonyl)-2,3-dihydro-1H-indene-1-carboxamide]	≥ 150	3 to 10	+++ (≥350)	< 3
COc1ncc(Br)c2c1C(C(=O)NS(=O)(=O)c1cccc3ccccc13)CC2 (centres unmarked) [Example I-110, 4-bromo-1-methoxy-N-(naphthalene-1-sulfonyl)-6,7-dihydro-5H-cyclopenta[c]pyridine-7-carboxamide]	≥ 150	3 to 10	+++ (≥350)	3 to 10
COc1ncc(C2CCC2)c2c1C(C(=O)NS(=O)(=O)c1cccc3ccccc13)CC2 (centres unmarked) [Example I-111, 4-cyclobutyl-1-methoxy-N-(naphthalene-1-sulfonyl)-6,7-dihydro-5H-cyclopenta[c]pyridine-7-carboxamide]	≥ 150	3 to 10	+++ (≥350)	3 to 10

The next lines start with the values.

Emax [1] [%]	EC50 [1] [µM]	Maximum % activity (with co-corrector) [2]	EC50 [2] [µM]	SMILES
≥ 150	< 3	+++ (≥350)	< 3	COc1ccc(C(F)(F)F)c2c1[C@H](C(=O)NS(=O)(=O)c1cccc3ccccc13)CC2 [Example I-94, (1R)-7-methoxy-N-(naphthalene-1-sulfonyl)-4-(trifluoromethyl)-2,3-dihydro-1H-indene-1-carboxamide]
≥ 150	< 3	+++ (≥350)	< 3	COc1ccc(C(F)(F)F)c2c1[C@H](C(=O)NS(=O)(=O)c1cccc3ncccc13)CC2 [Example I-96, (1R)-7-methoxy-N-(quinoline-5-sulfonyl)-4-(trifluoromethyl)-2,3-dihydro-1H-indene-1-carboxamide]
≥ 150	< 3	+++ (≥350)	< 3	CCC1(C(=O)NS(=O)(=O)c2cccc3cnn(C)c23)CCc2c(Cl)cccc21 (centres unmarked) [Example I-97, 4-chloro-1-ethyl-N-(1-methyl-1H-indazole-7-sulfonyl)-2,3-dihydro-1H-indene-1-carboxamide]
≥ 150	< 3	+++ (≥350)	< 3	COc1ccc(Br)c2c1C(C(=O)NS(=O)(=O)c1cccc3cnn(C)c13)CC2 (centres unmarked) [Example I-98, 4-bromo-7-methoxy-N-(1-methyl-1H-indazole-7-sulfonyl)-2,3-dihydro-1H-indene-1-carboxamide]
≥ 150	< 3	+++ (≥350)	< 3	COc1ccc(Br)c2c1C(C(=O)NS(=O)(=O)c1cccc3ncc(C)n13)CC2 (centres unmarked) [Example I-100, 4-bromo-7-methoxy-N-(3-methylimidazo[1,2-a]pyridine-5-sulfonyl)-2,3-dihydro-1H-indene-1-carboxamide]
≥ 150	< 3	+++ (≥350)	< 3	COc1ccc(Br)c2c1C(C(=O)NS(=O)(=O)c1cccc3nc(C)cn13)CC2 (centres unmarked) [Example I-101, 4-bromo-7-methoxy-N-(2-methylimidazo[1,2-a]pyridine-5-sulfonyl)-2,3-dihydro-1H-indene-1-carboxamide]
≥ 150	< 3	+++ (≥350)	< 3	COc1ccc(C2CCC2)c2c1C(C(=O)NS(=O)(=O)c1cccc3ccccc13)C2 (centres unmarked) [Example I-102, 2-cyclobutyl-5-methoxy-N-(naphthalene-1-sulfonyl)bicyclo[4.2.0]octa-1,3,5-triene-7-carboxamide]

Reference: US20180244611A1, “Modulators of the Cystic Fibrosis Transmembrane Conductance Regulator Protein and Methods of Use” (AbbVie S.à.r.l., priority 2017, published 2018)
